Source: patent US20120184504A1, “"The Use of a PAR-1 Antagonist in Combination with a P2Y12 ADP Receptor Antagonist for Inhibition of Thrombosis"” (priority 2009, published 2012)

What was measured:
[1] = system: platelet aggregation induced by thromboxane A2 mimetic U46619 (10 μM); experiment: Ex vivo whole blood platelet aggregation induced by U46619; format: in vivo, cynomolgus monkeys
Method: (§1) Animals instrumented to produce CFRs were administered SCH 602539, cangrelor, or a combination of SCH 602539 and cangrelor. The dosing regimens of SCH 602539 were selected to provide a broad range of inhibition of platelet aggregation induced by 1 μM thrombin receptor agonist peptide (TRAP), whereas the doses of cangrelor were selected to achieve 50%-60% inhibition of platelet aggregation induced by 10 μM ADP (the degree of inhibition obtained with clopidogrel). Group 1 received drug vehicle only (20% hydroxypropyl betacyclodextran or saline, 2 mL i.v.). Group 2 received SCH 602539 dissolved in 20% hydroxypropyl betacyclodextran administered as sequential i.v. boluses of 0.1, 0.3, or 1 mg/kg, at 30-minute intervals. Group 3 received cangrelor dissolved in saline and administered as an intravenous infusion of 0.1, 0.2, or 0.3 μg/kg/min for 30 minutes each. Group 4 received a combination of SCH 602539 bolus plus cangrelor infusion (at respective doses of: 1) 0.05 mg/kg+0.05 μg/kg/min; 2) 0.1 mg/kg+0.1 μg/kg/min; and 3) 0.15 mg/kg+0.1 μg/kg/min. The three dose regimens within each group were administered sequentially over the consecutive 30-minute periods coinciding with the re-induction of endothelial injury. Study drug or vehicle was administered after stable CFRs were achieved, and upon the completion of a 30-minute baseline CFR collection period, drug(s) or vehicle were administered incrementally (every 30 minutes) either as a bolus (SCH 602539) or as an infusion (cangrelor), and their effects on CFRs were monitored in the next three 30-minute observation periods. Blood samples (3 mL) were collected from the femoral arterial catheter at the end of each 30-minute observation period for assessment of ex vivo platelet aggregation and coagulation parameters.
(§2) Platelet aggregation studies were performed ex viva on blood samples obtained from the monkeys subjected to the Folts model, using a ChronoLog whole blood aggregometer (Model 540VS, Havertown, Pa.). Briefly, 0.5 mL of blood was incubated with 0.5 mL of normal saline at 37° C. in a cuvette containing a stir bar for 2 minutes. Platelet agonists used in this study included TRAP (3 μM), ADP (10 μM), the thromboxane A2 mimetic U46619 (10 μM), and collagen (3 μg/mL). Platelet aggregation was monitored for 5 minutes following the addition of the agonist. The peak aggregation response was recorded in ohms. In addition, standard coagulation parameters, including prothrombin time (PT), activated partial thromboplastin time (APTT), and activated clotting time (ACT), were assessed.

[2] = Activated clotting time (ACT) in whole blood, Folts model animals; format: in vivo, cynomolgus monkeys; conditions: for ACT: i.v.; for effect on ACT: tested doses
Method: as §1, §2
PT and APTT assays were performed with plasma, while the ACT assay was performed with whole blood. Data are presented as mean±SEM (n=5-6/group).

Compound	Aggregation, U46619 ([1]; SCH 602539 0.1 mg/kg, baseline 20 ± 5) [ohms]	effect on aggregation induced by 10 μM U46619 ([1]; SCH 602539 0.3 mg/kg and 1 mg/kg)	Aggregation, U46619 ([1]; SCH 602539 0.3 mg/kg, baseline 20 ± 5) [ohms]	Aggregation, U46619 ([1]; SCH 602539 1.0 mg/kg, baseline 20 ± 5) [ohms]	ACT ([2]; SCH 602539 0.1 mg/kg, bolus, whole blood, baseline 79 ± 5.9) [s]	ACT ([2]; SCH 602539 0.3 mg/kg, bolus, baseline 79 ± 5.9) [s]	ACT ([2]; SCH 602539 1.0 mg/kg, bolus, baseline 79 ± 5.9) [s]	effect on ACT [2]	Aggregation, U46619 ([1]; Cangrelor 0.1 μg/kg/min, baseline 15 ± 3) [ohms]	Aggregation, U46619 ([1]; Cangrelor 0.2 μg/kg/min, baseline 15 ± 3) [ohms]	Aggregation, U46619 ([1]; Cangrelor 0.3 μg/kg/min, baseline 15 ± 3) [ohms]	effect on aggregation stimulated by 10 μM U46619 ([1]; cangrelor 0.2 and 0.3 μg/kg/min)	ACT ([2]; Cangrelor 0.1 μg/kg/min × 30 min, whole blood, baseline 77 ± 3.7) [s]	ACT ([2]; Cangrelor 0.2 μg/kg/min × 30 min, baseline 77 ± 3.7) [s]	ACT ([2]; Cangrelor 0.3 μg/kg/min × 30 min, baseline 77 ± 3.7) [s]
CCOC(=O)N[C@@H]1CC[C@@H]2[C@@H](C1)C[C@H]1C(=O)O[C@H](C)[C@H]1[C@H]2/C=C/c1ccc(-c2ccccn2)cn1 [SCH 602539]	17 ± 3	did not affect	19 ± 4	21 ± 5	73 ± 2.2	71 ± 4.4	67 ± 4.9	no effect							
CSCCNc1nc(SCCC(F)(F)F)nc2c1ncn2[C@@H]1O[C@H](COP(=O)(O)OP(=O)(O)C(Cl)(Cl)P(=O)(O)O)[C@@H](O)[C@H]1O [Cangrelor]								no effect	12 ± 3	10 ± 4	10 ± 4	did not interfere	79 ± 2.3	76 ± 1.7	74 ± 3.5
